Data taken from patent US20260305610A1, “TRIAZOLE COMPOUND, AND PREPARATION METHOD THEREFOR, HERBICIDAL COMPOSITION AND USE THEREOF” (QINGDAO KINGAGROOT CHEMICAL COMPOUND CO., LTD., priority 2023, published 2026).

What was measured:
major crops = experiment: Pre-emergence test experiment (crops); assay type: in vivo; parameters: key: 9: completely dead; 8: growth control rate is greater than or equal to 90% and less than 100%; 7: growth control rate is greater than or equal to 80% and less than 90%; 6: growth control rate is greater than or equal to 70% and less than 80%; growth control rate is greater than or equal to 50% and less than 70%; 4: growth control rate is greater than or equal to 30% and less than 50%; growth control rate is greater than or equal to 20% and less than 30%; growth control rate is greater than or equal to 10% and less than 20%; growth control rate is less than 10%; 0: no effect; settings: 30 g a.i./ha
[1] = system: monocotyledonous and dicotyledonous weeds; experiment: Pre-emergence test experiment (weeds); assay type: in vivo; parameters: key: 9: completely dead; 8: growth control rate is greater than or equal to 90% and less than 100%; 7: growth control rate is greater than or equal to 80% and less than 90%; 6: growth control rate is greater than or equal to 70% and less than 80%; growth control rate is greater than or equal to 50% and less than 70%; 4: growth control rate is greater than or equal to 30% and less than 50%; growth control rate is greater than or equal to 20% and less than 30%; growth control rate is greater than or equal to 10% and less than 20%; growth control rate is less than 10%; 0: no effect; settings: 30 g a.i./ha

In the case of `Cc1ccc(-n2cnc(C(F)(F)F)n2)nc1Oc1cccc(Cl)c1` [Compound 40], the “Pre-emergence plant damage level (growth control rate) on Corn” value (from here on “Pre-emergence plant damage level … on Corn”) (major crops) is reported as 0, the “Pre-emergence plant damage level (growth control rate) on Cotton” value (“Pre-emergence plant damage level … on Cotton” below) (major crops) is reported as 0 and the “Pre-emergence plant damage level (growth control rate) on Soybean” value (“Pre-emergence plant damage level … on Soybean” for short) (major crops) is reported as 0. For the same molecule, the “Pre-emergence activity level (growth control rate) on Amaranthus retroflexus” value [1] was 9, the “Pre-emergence activity level (growth control rate) on Descurainia sophia” value [1] was 9 and the “Pre-emergence activity level (growth control rate) on Digitaria sanguinalis” value [1] was 7 (growth control rate is greater than or equal to 80% and less than 90%). For the same molecule, the “Pre-emergence activity level (growth control rate) on Setaria viridis” value [1] was 7 (growth control rate is greater than or equal to 80% and less than 90%), the “Pre-emergence activity level (growth control rate) on Solanum nigrum” value [1] was 7 (growth control rate is greater than or equal to 80% and less than 90%) and the “Pre-emergence activity level (growth control rate) on Veronica” value (shortened to “Pre-emergence activity level … on Veronica”) [1] was 9.

With `Cc1ccc(-n2cnc(C(F)(F)F)n2)nc1Oc1cccc(OC(F)F)c1` [Compound 43] the “Pre-emergence plant damage level … on Corn” value (major crops) was 0, the “Pre-emergence plant damage level … on Cotton” value (major crops) was 0 and the “Pre-emergence plant damage level … on Soybean” value (major crops) was 0. For the same molecule, the “Pre-emergence activity level (growth control rate) on Amaranthus retroflexus” value [1] was 9, the “Pre-emergence activity level (growth control rate) on Descurainia sophia” value [1] was 9 and the “Pre-emergence activity level (growth control rate) on Digitaria sanguinalis” value [1] was 9. The “Pre-emergence activity level (growth control rate) on Setaria viridis” value [1] was 8 (growth control rate is greater than or equal to 90% and less than 100%), the “Pre-emergence activity level (growth control rate) on Solanum nigrum” value [1] was 7 (growth control rate is greater than or equal to 80% and less than 90%) and the “Pre-emergence activity level … on Veronica” value [1] was 9.

In the case of `Cc1ccc(-n2cnc(C(F)(F)C(F)(F)F)n2)nc1Oc1cccc(OC(F)(F)F)c1` [Compound 65], the “Pre-emergence plant damage level … on Corn” value (major crops) is reported as 0, the “Pre-emergence plant damage level … on Cotton” value (major crops) is reported as 0 and the “Pre-emergence plant damage level … on Soybean” value (major crops) is reported as 0. The “Pre-emergence activity level (growth control rate) on Descurainia sophia” value [1] was 9, the “Pre-emergence activity level (growth control rate) on Digitaria sanguinalis” value [1] was 9 and the “Pre-emergence activity level (growth control rate) on Setaria viridis” value [1] was 9.

In the case of `Cc1ccc(-n2cnc(C(F)(F)F)n2)nc1Oc1ccc(F)c(OC(F)(F)F)c1` [Compound 66], the “Pre-emergence plant damage level … on Corn” value (major crops) is reported as 0, the “Pre-emergence plant damage level … on Cotton” value (major crops) is reported as 0 and the “Pre-emergence plant damage level … on Soybean” value (major crops) is reported as 0. For the same molecule, the “Pre-emergence activity level (growth control rate) on Amaranthus retroflexus” value [1] was 9, the “Pre-emergence activity level (growth control rate) on Descurainia sophia” value [1] was 9 and the “Pre-emergence activity level (growth control rate) on Digitaria sanguinalis” value [1] was 9. The “Pre-emergence activity level (growth control rate) on Setaria viridis” value [1] was 9, the “Pre-emergence activity level (growth control rate) on Solanum nigrum” value [1] was 9 and the “Pre-emergence activity level … on Veronica” value [1] was 9.

With `COc1cc(Oc2cccc(OC(F)(F)F)c2)nc(-n2cnc(C(F)F)n2)c1` [Compound 67] the “Pre-emergence plant damage level … on Corn” value (major crops) was 0, the “Pre-emergence plant damage level … on Cotton” value (major crops) was 0 and the “Pre-emergence plant damage level … on Soybean” value (major crops) was 0. For the same molecule, the “Pre-emergence activity level (growth control rate) on Amaranthus retroflexus” value [1] was 9, the “Pre-emergence activity level (growth control rate) on Descurainia sophia” value [1] was 9 and the “Pre-emergence activity level (growth control rate) on Digitaria sanguinalis” value [1] was 7 (growth control rate is greater than or equal to 80% and less than 90%). For the same molecule, the “Pre-emergence activity level (growth control rate) on Setaria viridis” value [1] was 7 (growth control rate is greater than or equal to 80% and less than 90%) and the “Pre-emergence activity level … on Veronica” value [1] was 9.

In the case of `COCc1cc(Oc2cccc(C(F)(F)F)c2)nc(-n2cnc(C(F)(F)F)n2)c1` [Compound 68], the “Pre-emergence plant damage level … on Corn” value (major crops) is reported as 0, the “Pre-emergence plant damage level … on Cotton” value (major crops) is reported as 0 and the “Pre-emergence plant damage level … on Soybean” value (major crops) is reported as 0. The “Pre-emergence activity level (growth control rate) on Amaranthus retroflexus” value [1] was 9, the “Pre-emergence activity level (growth control rate) on Descurainia sophia” value [1] was 8 (growth control rate is greater than or equal to 90% and less than 100%) and the “Pre-emergence activity level (growth control rate) on Digitaria sanguinalis” value [1] was 7 (growth control rate is greater than or equal to 80% and less than 90%). The “Pre-emergence activity level (growth control rate) on Setaria viridis” value [1] was 8 (growth control rate is greater than or equal to 90% and less than 100%), the “Pre-emergence activity level (growth control rate) on Solanum nigrum” value [1] was 7 (growth control rate is greater than or equal to 80% and less than 90%) and the “Pre-emergence activity level … on Veronica” value [1] was 8 (growth control rate is greater than or equal to 90% and less than 100%).

With `CCc1ccc(-n2cnc(C(F)(F)F)n2)nc1Oc1cccc(C(C)(F)F)c1` [Compound 69] the “Pre-emergence plant damage level … on Corn” value (major crops) was 0, the “Pre-emergence plant damage level … on Cotton” value (major crops) was 0 and the “Pre-emergence plant damage level … on Soybean” value (major crops) was 0. For the same molecule, the “Pre-emergence activity level (growth control rate) on Amaranthus retroflexus” value [1] was 9, the “Pre-emergence activity level (growth control rate) on Descurainia sophia” value [1] was 9 and the “Pre-emergence activity level (growth control rate) on Digitaria sanguinalis” value [1] was 9. The “Pre-emergence activity level (growth control rate) on Setaria viridis” value [1] was 9, the “Pre-emergence activity level (growth control rate) on Solanum nigrum” value [1] was 9 and the “Pre-emergence activity level … on Veronica” value [1] was 9.

For `Cc1ccc(-n2cnc(C(F)F)n2)nc1Oc1ccc(F)c(C(F)(F)F)c1` [Compound 70], the “Pre-emergence plant damage level … on Corn” value (major crops) was 0, the “Pre-emergence plant damage level … on Cotton” value (major crops) was 0 and the “Pre-emergence plant damage level … on Soybean” value (major crops) was 0. The “Pre-emergence activity level (growth control rate) on Amaranthus retroflexus” value [1] was 9, the “Pre-emergence activity level (growth control rate) on Descurainia sophia” value [1] was 9 and the “Pre-emergence activity level (growth control rate) on Digitaria sanguinalis” value [1] was 9. For the same molecule, the “Pre-emergence activity level (growth control rate) on Setaria viridis” value [1] was 9, the “Pre-emergence activity level (growth control rate) on Solanum nigrum” value [1] was 9 and the “Pre-emergence activity level … on Veronica” value [1] was 9.

`CCc1ccc(-n2cnc(C(F)(F)F)n2)nc1Oc1cccc(OC(F)(F)F)c1` [Compound 71] was tested, and the “Pre-emergence plant damage level … on Corn” value (major crops) was 0, the “Pre-emergence plant damage level … on Cotton” value (major crops) was 0 and the “Pre-emergence plant damage level … on Soybean” value (major crops) was 0. For the same molecule, the “Pre-emergence activity level (growth control rate) on Amaranthus retroflexus” value [1] was 9, the “Pre-emergence activity level (growth control rate) on Descurainia sophia” value [1] was 9 and the “Pre-emergence activity level (growth control rate) on Digitaria sanguinalis” value [1] was 9. For the same molecule, the “Pre-emergence activity level (growth control rate) on Setaria viridis” value [1] was 9, the “Pre-emergence activity level (growth control rate) on Solanum nigrum” value [1] was 9 and the “Pre-emergence activity level … on Veronica” value [1] was 9.

In the case of `CCc1ccc(-n2cnc(C(F)F)n2)nc1Oc1cccc(C(F)(F)F)c1` [Compound 72], the “Pre-emergence plant damage level … on Corn” value (major crops) is reported as 0, the “Pre-emergence plant damage level … on Cotton” value (major crops) is reported as 0 and the “Pre-emergence plant damage level … on Soybean” value (major crops) is reported as 0. The “Pre-emergence activity level (growth control rate) on Amaranthus retroflexus” value [1] was 9, the “Pre-emergence activity level (growth control rate) on Descurainia sophia” value [1] was 9 and the “Pre-emergence activity level (growth control rate) on Digitaria sanguinalis” value [1] was 7 (growth control rate is greater than or equal to 80% and less than 90%). For the same molecule, the “Pre-emergence activity level (growth control rate) on Setaria viridis” value [1] was 8 (growth control rate is greater than or equal to 90% and less than 100%), the “Pre-emergence activity level (growth control rate) on Solanum nigrum” value [1] was 9 and the “Pre-emergence activity level … on Veronica” value [1] was 9.

For `CCc1ccc(-n2cnc(C(F)F)n2)nc1Oc1cccc(OC(F)(F)F)c1` [Compound 73], the “Pre-emergence plant damage level … on Corn” value (major crops) was 0, the “Pre-emergence plant damage level … on Cotton” value (major crops) was 0 and the “Pre-emergence plant damage level … on Soybean” value (major crops) was 0. For the same molecule, the “Pre-emergence activity level (growth control rate) on Amaranthus retroflexus” value [1] was 9, the “Pre-emergence activity level (growth control rate) on Descurainia sophia” value [1] was 9 and the “Pre-emergence activity level (growth control rate) on Digitaria sanguinalis” value [1] was 8 (growth control rate is greater than or equal to 90% and less than 100%). For the same molecule, the “Pre-emergence activity level (growth control rate) on Setaria viridis” value [1] was 8 (growth control rate is greater than or equal to 90% and less than 100%), the “Pre-emergence activity level (growth control rate) on Solanum nigrum” value [1] was 9 and the “Pre-emergence activity level … on Veronica” value [1] was 9.

`CCc1ccc(-n2cnc(C(F)F)n2)nc1Oc1cncc(C(F)(F)F)c1` [Compound 74] was tested, and the “Pre-emergence plant damage level … on Corn” value (major crops) was 0, the “Pre-emergence plant damage level … on Cotton” value (major crops) was 0 and the “Pre-emergence plant damage level … on Soybean” value (major crops) was 0. The “Pre-emergence activity level (growth control rate) on Amaranthus retroflexus” value [1] was 9, the “Pre-emergence activity level (growth control rate) on Descurainia sophia” value [1] was 9 and the “Pre-emergence activity level (growth control rate) on Digitaria sanguinalis” value [1] was 9. For the same molecule, the “Pre-emergence activity level (growth control rate) on Setaria viridis” value [1] was 8 (growth control rate is greater than or equal to 90% and less than 100%), the “Pre-emergence activity level (growth control rate) on Solanum nigrum” value [1] was 9 and the “Pre-emergence activity level … on Veronica” value [1] was 9.

For `Cc1ccc(-n2cnc(C(F)(F)F)n2)nc1Oc1ccc(F)c(OC(F)F)c1` [Compound 75], the “Pre-emergence plant damage level … on Corn” value (major crops) was 0, the “Pre-emergence plant damage level … on Cotton” value (major crops) was 0 and the “Pre-emergence plant damage level … on Soybean” value (major crops) was 0. The “Pre-emergence activity level (growth control rate) on Amaranthus retroflexus” value [1] was 9, the “Pre-emergence activity level (growth control rate) on Descurainia sophia” value [1] was 9 and the “Pre-emergence activity level (growth control rate) on Digitaria sanguinalis” value [1] was 9. The “Pre-emergence activity level (growth control rate) on Setaria viridis” value [1] was 9, the “Pre-emergence activity level (growth control rate) on Solanum nigrum” value [1] was 9 and the “Pre-emergence activity level … on Veronica” value [1] was 9.

In the case of `COc1cc(Oc2ccc(F)c(C(F)(F)F)c2)nc(-n2cnc(C(F)(F)F)n2)c1` [Compound 76], the “Pre-emergence plant damage level … on Corn” value (major crops) is reported as 0, the “Pre-emergence plant damage level … on Cotton” value (major crops) is reported as 0 and the “Pre-emergence plant damage level … on Soybean” value (major crops) is reported as 0. The “Pre-emergence activity level (growth control rate) on Amaranthus retroflexus” value [1] was 9, the “Pre-emergence activity level (growth control rate) on Descurainia sophia” value [1] was 9 and the “Pre-emergence activity level (growth control rate) on Digitaria sanguinalis” value [1] was 9. For the same molecule, the “Pre-emergence activity level (growth control rate) on Setaria viridis” value [1] was 8 (growth control rate is greater than or equal to 90% and less than 100%), the “Pre-emergence activity level (growth control rate) on Solanum nigrum” value [1] was 9 and the “Pre-emergence activity level … on Veronica” value [1] was 9.
